In PMC7541927 (Preventive Nutrition and Food Science, 2020) one finds IC50 data, which are given here for one compound.

This assay deals with T1, α-amylase from porcine pancreas (Sus scrofa, UniProt P00690).
T1 sequence (P00690 16-511): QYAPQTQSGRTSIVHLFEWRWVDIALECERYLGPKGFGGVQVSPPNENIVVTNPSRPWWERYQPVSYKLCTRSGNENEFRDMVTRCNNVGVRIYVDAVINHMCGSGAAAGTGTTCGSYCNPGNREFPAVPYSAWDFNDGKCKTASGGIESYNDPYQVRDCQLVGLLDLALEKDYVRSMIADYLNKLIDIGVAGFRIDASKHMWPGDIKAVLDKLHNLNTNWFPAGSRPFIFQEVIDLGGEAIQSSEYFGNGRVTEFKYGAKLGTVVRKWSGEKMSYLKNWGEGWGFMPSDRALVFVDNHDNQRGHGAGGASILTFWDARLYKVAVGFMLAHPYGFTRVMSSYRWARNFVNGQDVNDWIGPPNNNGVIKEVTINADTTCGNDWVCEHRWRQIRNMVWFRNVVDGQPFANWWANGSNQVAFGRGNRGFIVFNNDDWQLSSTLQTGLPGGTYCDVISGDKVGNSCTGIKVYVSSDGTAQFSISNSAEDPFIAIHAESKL
Briefly: biochemical.

Usually IC50 stands for the midpoint of a concentration-inhibition curve. As for `O=C(O)CC(O)(CC(=O)O)C(=O)O` [citric acid], half-maximal inhibition (IC50) required 640 ± 40 µM.
